Measured values as given in patent US20130225548A1, “Pyridine Derivative and Medicinal Agent” (NIPPON SHINYAKU CO., LTD., priority 2010, published 2013).
Counter-ions that a name gives are not always drawn.

Biological target: T1, Syk tyrosine kinase (Homo sapiens, UniProt P43405)
T1 construct: purchased Carna Biosciences, Inc
Assay: Test for Syk tyrosine kinase inhibitory activity (ELISA)
Format: biochemical
Conditions: Syk tyrosine kinase (Carna Biosciences), 25 μM ATP in substrate solution, 30° C. 1 hour, n=2; read-out: Evaluation (IC50, concentration inhibiting the tyrosine kinase activity at 50%)
How it was run: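 Syk kinase (0.025 nM stock before addition) with 625 nM biotinylated peptide and 25 μM ATP (substrate-solution levels) in Tris pH 7.5, MgCl2, DTT; 1 h at 30 °C on streptavidin plates. Phosphotyrosine detected by HRP anti-pTyr antibody, TMB, A450; IC50 by non-linear regression.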

IC50 [nM]	SMILES
50 to 500	CC(=O)N1CCCN(c2ccc(-c3cc(C4CC4)cc(Nc4cc(C#N)ccn4)n3)cn2)CC1 [Example 9, 2-{[6′-(4-acetyl-1,4-diazepan-1-yl)-4-cyclopropyl-2,3′-bipyridin-6-yl]amino}pyridine-4-carbonitrile hydrochloride]
50 to 500	N#Cc1ccnc(Nc2cc(C3CC3)cc(-c3ccc(N4CC[C@@H](F)C4)nc3)n2)c1 [Example 51, 2-({4-cyclopropyl-6′-[(3R)-3-fluoropyrrolidin-1-yl]-2,3′-bipyridin-6-yl}amino)pyridine-4-carbonitrile hydrochloride]
50 to 500	CN(C)C(C)(C)COc1cncc(-c2cc(C3CC3)cc(Nc3cc(C#N)ccn3)n2)c1 [Example 108, 2-({4-cyclopropyl-5′-[2-(dimethylamino)-2-methylpropoxy]-2,3′-bipyridin-6-yl}amine)pyridine-4-carbonitrile hydrochloride]
50 to 500	N#Cc1ccnc(Nc2cc(C3CC3)cc(-c3ccc4c(c3)ncn4CCCO)n2)c1 [Example 121, 2-({4-cyclopropyl-6-[1-(3-hydroxypropyl)-1H-benzimidazol-5-yl]pyridin-2-yl}amino)pyridine-4-carbonitrile hydrochloride]
< 5	N#Cc1ccnc(Nc2cc(C3CC3)cc(-c3cncc(N[C@@H]4CCNC4)c3)n2)c1 [Example 88, 2-({4-cyclopropyl-5′-[(3R)-pyrrolidin-3-ylamino]-2,3′-bipyridin-6-yl}amino)pyridine-4-carbonitrile hydrochloride]
5 to 50	N#Cc1ccnc(Nc2cc(C3CC3)cc(-c3cncc(CN4CCNCC4)c3)n2)c1 [Example 81, 2-{[4-cyclopropyl-5′-(piperazin-1-ylmethyl)-2,3′-bipyridin-6-yl]amino}pyridine-4-carbonitrile hydrochloride]
5 to 50	N#Cc1ccnc(Nc2cc(C3CC3)cc(-c3cncc(N4CCC[C@@H](O)C4)c3)n2)c1 [Example 113, 2-({4-cyclopropyl-5′-[(3R)-3-hydroxypiperidin-1-yl]-2,3′-bipyridin-6-yl}amino)pyridine-4-carbonitrile hydrochloride]
50 to 500	Cn1cc(-c2cncc(-c3cc(C4CC4)cc(Nc4cc(C#N)ccn4)n3)c2)cn1 [Example 114, 2-{[4-cyclopropyl-5′-(1-methyl-1H-pyrazol-4-yl)-2,3′-bipyridin-6-yl]amino}pyridine-4-carbonitrile hydrochloride]
5 to 50	N#Cc1ccnc(Nc2cc(C3CC3)cc(-c3cncc(N4CCCN(C(N)=O)CC4)c3)n2)c1 [Example 69, 4-{6-[(4-cyanopyridin-2-yl)amino]-4-cyclopropyl-2,3′-bipyridin-5′-yl}-1,4-diazepane-1-carboxamide hydrochloride]
5 to 50	N#Cc1ccnc(Nc2cc(C3CC3)cc(-c3ccc(N4CC[C@@H](N)C4)nc3)n2)c1 [Example 49, 2-({6′-[(3R)-3-aminopyrrolidin-1-yl]-4-cyclopropyl-2,3′-bipyridin-6-yl}amino)pyridine-4-carbonitrile dihydrochioride]
50 to 500	N#Cc1ccnc(Nc2cc(C3CC3)cc(-c3ccc4ncn(Cc5cccnc5)c4c3)n2)c1 [Example 130, 2-({4-cyclopropyl-6-[1-(pyridin-3-ylmethyl)-1H-benzimidazol-6-yl]pyridin-2-yl}amino)pyridine-4-carbonitrile hydrochloride]
< 5	N#Cc1ccnc(Nc2cc(C3CC3)cc(-c3cncc(N[C@H]4CCNC4)c3)n2)c1 [Example 89, 2-{(4-cyclopropyl-5′-[(3S)-pyrrolidin-3-ylamino]-2,3′-bipyridin-6-yl}amino)pyridine-4-carbonitrile hydrochloride]
< 5	CC(C)c1nc2ccc(-c3cc(C4CC4)cc(Nc4cc(C#N)ccn4)n3)cc2n1[C@H]1CC[C@H](O)CC1 [Example 161, 2-({4-cyclopropyl-6-[1-(trans-4-hydroxycyclohexyl)-2-(propan-2-yl)-1H-benzimidazol-6-yl]pyridin-2-y}amino)pyridine-4-carbonitrile hydrochloride]
< 5	N#Cc1ccnc(Nc2cc(C3CC3)cc(-c3cncc(NC[C@H]4CCNC4)c3)n2)c1 [Example 97, 2-[(4-cyclopropyl-5′-{[(3S)-pyrrolidin-3-ylmethyl]amino}-2,3′-bipyridin-6-yl)amino]pyridine-4-carbonitrile hydrochloride]
50 to 500	COC(=O)CCn1cnc2ccc(-c3cc(C4CC4)cc(Nc4cc(C#N)ccn4)n3)cc21 [Example 126, methyl 3-(6-{6-[(4-cyanopyridin-2-yl)amino]-4-cyclopropylpyridin-2-yl}1H-benzimidazol-1-yl)propanonate hydrochloride]
5 to 50	N#Cc1ccnc(Nc2cc(C3CC3)cc(-c3cncc(OC4CCN(C(N)=O)CC4)c3)n2)c1 [Example 104, 4-({6-[(4-cyanopyridin-2-yl)amino]-4-cyclopropyl-2,3′-pypyridin-5′-yl}oxy)piperidine-1-carboxamide hydrochloride]
5 to 50	N#Cc1ccnc(Nc2cc(C3CC3)cc(-c3ccc(N4CCC(N)CC4)nc3)n2)c1 [Example 28, 2-{[6′-(4-aminopiperidin-1-yl)-4-cyclopropyl-2,3′-bipyridin-6-yl]amino}pyridine-4-carbonitrile dihydrochloride]

IC50 [nM]	SMILES
5 to 50	N#Cc1ccnc(Nc2cc(C3CC3)cc(-c3ccc4ccnc(N5CC[C@@H](N)C5)c4c3)n2)c1 [Example 169, hydrochloride]
50 to 500	N#Cc1ccnc(Nc2cc(C3CC3)cc(-c3ccc(N4CCC(O)CC4)cc3)n2)c1 [Example 41, 2-({4-cyclopropyl-6-[4-(4-hydroxypiperidin-1-yl)phenyl]pyridin-2-yl}amino)pyridine-4-carbonitrile hydrochloride]
< 5	N#Cc1ccnc(Nc2cc(C3CC3)cc(-c3ccc4ncn([C@H]5CC[C@H](O)CC5)c4c3)n2)c1 [Example 122, 2-({4-cyclopropyl-6-[1-(trans-4-hydroxycyclohexyl)-1H-benzimidazol-6-yl]pyridin-2-yl}amino)pyridine-4-carbonitrile hydrochloride]
50 to 500	N#Cc1ccnc(Nc2cc(C3CC3)cc(-c3ccc(N4CCCC4=O)nc3)n2)c1 [Example 53, 2-{[4-cyclopropyl-6′-(2-oxopyrrolidin-1-yl)-2,3′-bipyridin-6-yl]amino}pyridine-4-carbonitrile hydrochloride]
50 to 500	CCNC(=O)N1CCN(c2ccc(-c3cc(C4CC4)cc(Nc4cc(C#N)ccn4)n3)cn2)CC1 [Example 43, 4-{6-[(4-cyanopyridin-2-yl)amino]-4-cyclopropyl-2,3′-bipyridin-6′-yl}-N-ethylpiperazine-1-carboxamide hydrochloride]
5 to 50	N#Cc1ccnc(Nc2cc(C3CC3)cc(-c3ccc4ncn([C@@H]5CCCC[C@H]5O)c4c3)n2)c1 (relative stereo) [Example 146, 2-[(4-cyclopropyl-6-{1[trans-2-hydroxycyclohexyl]-1H-benzimidazol-6-yl}pyridin-2-yl)amino]pyridine-4-carbonitrile hydrochloride]
50 to 500	N#Cc1ccnc(Nc2cc(C3CC3)cc(-c3ccc4ncn(C5CCC(F)(F)CC5)c4c3)n2)c1 [Example 136, 2-({4-cyclopropyl-6-[1-(4,4-difluorocyclohexyl)-1H-benzimidazol-6-yl]pyridine-2-yl}amino)pyridine-4-carbonitrile hydrochloride]
5 to 50	N#Cc1ccnc(Nc2cc(C3CC3)cc(-c3ccnc(CN4CCNCC4)c3)n2)c1 [Example 86, 2-{[4-cyclopropyl-2′-(piperazin-1-ylmethyl)-2,4′-bipyridin-6-yl]amino}pyridine-4-carbonitrile hydrochloride]
5 to 50	N#Cc1ccnc(Nc2cc(C3CC3)cc(-c3ccc(N4CCCNCC4)nc3)n2)c1 [Example 32, 2-{[4-cyclopropyl-6′-(1,4-diazepan-1-yl)-2,3′-bipyridin-6-yl]amino}pyridine-4-carbonitrile dihydrochloride]
5 to 50	N#Cc1ccnc(Nc2cc(C3CC3)cc(-c3cncc(CN4CCS(=O)(=O)CC4)c3)n2)c1 [Example 74, 2-({4-cyclopropyl-5′-[(1,1-dioxidethiomorpholin-4-yl)methyl]-2,3′-bipyridin-6-yl}amino)pyridine-4-carbonitrile hydrochloride]
5 to 50	N#Cc1ccnc(Nc2cc(C3CC3)cc(-c3ccc(N4CCC(C(=O)O)CC4)nc3)n2)c1 [Example 60, 1-{6-[(4-cyanopyridin-2-yl)amino]-4-cyclopropyl-2,3′-bipyridin-6′-yl}piperidine-4-carboxylic acid hydrochloride]
5 to 50	CC(=O)NCCn1cnc2cc(-c3cc(C4CC4)cc(Nc4cc(C#N)ccn4)n3)ccc21 [Example 151, N-[2-(5-{6-[(4-cyanopyridin-2-yl)amino]-4-cyclopropylpyridin-2-yl}-1H-benzimidazol-1-yl)ethyl]acetamide hydrochloride]
< 5	N#Cc1ccnc(Nc2cc(C3CC3)cc(-c3cncc(N4CCNC(=O)C4)c3)n2)c1 [Example 115, 2-{[4-cyclopropyl-5′-(3-oxopiperazin-1-yl)-2,3′-bipyridin-6-yl]amino}pyridine-4-carbonitrile]
50 to 500	Cc1ccc(-c2cc(C3CC3)cc(Nc3cc(C#N)ccn3)n2)cn1 [Example 54, 2-[(4-cyclopropyl-6′-methyl-2,3′-bipyridin-6-yl)amino]pyridine-4-carbonitrile hydrochloride]
< 5	N#Cc1ccnc(Nc2cc(C3CC3)cc(-c3ccc4ncn(C5CCNCC5)c4c3)n2)c1 [Example 173, hydrochloride]
50 to 500	CC(=O)O[C@@H]1CCC[C@H]1n1cnc2ccc(-c3cc(C4CC4)cc(Nc4cc(C#N)ccn4)n3)cc21 (relative stereo) [Example 141, trans-2-(6-{6-[(4-cyanopyridin-2-yl)amino]-4-cyclopropylpyridin-2-yl}-1H-benzimidazol-1-yl)cyclopentyl acetate hydrochloride]
